Earlier results, collected in US20120213707A1, “Riboflavin Based Aerosol and Use as Placebo in Trials” (MPEX PHARMACEUTICALS, INC., priority 2009, published 2012).

Test system: men and women with a history of recurrent migraine headaches
Conditions: cited from earlier work

SMILES: Cc1cc2nc3c(=O)[nH]c(=O)nc-3n(C[C@H](O)[C@H](O)[C@H](O)CO)c2cc1C [riboflavin]
- median migraine attack frequency (400 mg of riboflavin daily for three months, 23 patients, Boehnke 2004): reduction in median migraine attack frequency
- migraine attack frequency and number of headache days versus placebo (400 mg of riboflavin/day for three months, 54 men and women, Schoenen 1998): significantly better than placebo
- clinical outcome in migraine (high-dose riboflavin, Sandor 2000): clinical improvement
